Test results taken from publication PMC5004176, “The antifungal plant defensin AtPDF2.3 from Arabidopsis thaliana blocks potassium channels” (Scientific Reports, 2016).
Ends that are not written are not given here.

Assays:
[1] = system: plant pathogenic fungi; test: Fungal growth inhibitory assay, whole panel; type: cell-based; conditions: range over the fungal panel of Table 1, 48 hours; read-out: IC50 values against all plant pathogenic fungi tested (range)
[2] = system: Fusarium graminearum PH-1; type: cell-based; conditions: read-out: IC50 (growth inhibition)
[3] = system: Nav1.2; test: Two-electrode voltage-clamp on Nav1.2 expressed in X. laevis oocytes; type: cell-based; conditions: 5 μM, n ≥ 4
[4] = system: Nav1.4; test: Two-electrode voltage-clamp on Nav1.4 expressed in X. laevis oocytes; type: cell-based; conditions: 5 μM, n ≥ 4
[5] = system: hERG (Kv11.1); test: Two-electrode voltage-clamp on hERG expressed in X. laevis oocytes; conditions: 3 μM, n ≥ 3
Description: (§1) For the expression of the voltage-gated potassium channels (rKv1.1, rKv1.2, hKv1.3, rKv1.4, rKv1.5, rKv1.6, Shaker IR, hKv3.1, rKv4.3, and hERG) in Xenopus laevis oocytes, the linearized plasmids were transcribed using the T7 or SP6 mMESSAGE-mMACHINE transcription kit (Ambion). The harvesting of stage V–VI oocytes from an anaesthetized female X. laevis frog was previously described[59]. Oocytes were injected with 50 nL of cRNA at a concentration of 1 ng/nL using a micro-injector (Drummond Scientific, USA). The oocytes were incubated in a solution containing (in mM): NaCl, 96; KCl, 2; CaCl2, 1.8; MgCl2, 2 and HEPES, 5 (pH 7.4), supplemented with 50 mg/L gentamycin sulfate.
Two-electrode voltage-clamp recordings were performed at room temperature (18–22 °C) using a Geneclamp 500 amplifier (Molecular Devices, USA) controlled by a pClamp data acquisition system (Axon Instruments, USA). Whole cell currents from oocytes were recorded 1–4 days after injection. Bath solution composition was ND96 (in mM): NaCl, 96; KCl, 2; CaCl2, 1.8; MgCl2, 2 and HEPES, 5 (pH 7.4) or HK (in mM): NaCl, 2; KCl, 96; CaCl2, 1.8; MgCl2, 2 and HEPES, 5 (pH 7.4). Voltage and current electrodes were filled with 3 M KCl. Resistances of both electrodes were kept between 0.7 and 1.5 MΩ. […] GV curves were calculated from IV relationships as follows: gK = IK/(Em−EK) with EK = (RT/zF)ln[K #0]o/[K #0]i. […]

[6] = system: Saccharomyces cerevisiae BY4741 ∆kkq8; test: Yeast growth inhibitory assay; type: cell-based; conditions: BY4741 ∆kkq8, MM medium, 24 hours, OD490nm, mean ± SEM, n ≥ 3; read-out: IC50 (growth inhibition)
[7] = system: Saccharomyces cerevisiae BY4741 ∆hal5; test: Yeast growth inhibitory assay; type: cell-based; conditions: BY4741 ∆hal5, MM medium, 24 hours, OD490nm, mean ± SEM, n ≥ 3; read-out: IC50 (growth inhibition)
[8] = system: Kv1.6 channels; test: Two-electrode voltage-clamp on Kv1.6 expressed in X. laevis oocytes; conditions: n ≥ 3
Description: as §1
Two-electrode voltage-clamp recordings were performed at room temperature (18–22 °C) using a Geneclamp 500 amplifier (Molecular Devices, USA) controlled by a pClamp data acquisition system (Axon Instruments, USA). Whole cell currents from oocytes were recorded 1–4 days after injection. Bath solution composition was ND96 (in mM): NaCl, 96; KCl, 2; CaCl2, 1.8; MgCl2, 2 and HEPES, 5 (pH 7.4) or HK (in mM): NaCl, 2; KCl, 96; CaCl2, 1.8; MgCl2, 2 and HEPES, 5 (pH 7.4). Voltage and current electrodes were filled with 3 M KCl. Resistances of both electrodes were kept between 0.7 and 1.5 MΩ. The elicited currents were filtered at 0.5 kHz and sampled at 2 kHz (for potassium currents) or filtered at 2 kHz and sampled at 20 kHz (for sodium currents) using a four-pole low-pass Bessel filter. Leak subtraction was performed using a -P/4 protocol. Kv1.1–Kv1.6 and Shaker currents were evoked by 250 ms depolarizations to 0 mV followed by a 250 ms pulse to −50 mV, from a holding potential of −90 mV. Current traces of hERG channels were elicited by applying a +40 mV prepulse for 2 s followed by a step to −120 mV for 2 s. […] In order to investigate the current–voltage relationship, current traces were evoked by 10 mV depolarization steps from a holding potential of −90 mV. To assess the concentration dependency of the toxin induced inhibitory effects, a concentration–response curve was constructed, in which the percentage of current inhibition was plotted as a function of toxin concentration. Data were fitted with the Hill equation: y = 100/[1 + (IC50/[toxin])^h], were y is the amplitude of the toxin-induced effect, IC50 is the toxin concentration at half-maximal efficacy, [toxin] is the toxin concentration, and h is the Hill coefficient. GV curves were calculated from IV relationships as follows: gK = IK/(Em−EK) with EK = (RT/zF)ln[K #0]o/[K #0]i. In these equations gK represents the conductance, IK the potassium current, Em the membrane potential, EK the reversal potential, R the gas constant (8.31 J/K mol), T the temperature, z the charge of the ion (for K+ ions: z = 1), F the Faraday’s constant (96.500 C/mol), [K #0]o and [K #0]i respectively are the extracellular and intracellular K+ ion concentrations. The values of IK or gK were plotted as function of voltage and fitted using the Boltzmann equation: gK/gmax = [1 + exp(Vg−V)/k]−1, were gmax represents maximal gK, Vg is the voltage corresponding to half-maximal conductance, and k is the slope factor. Comparison of two sample means was made using a paired Student’s t test (P < 0.05). All data represent at least three independent experiments (n ≥ 3) and are presented as mean ± standard error.

[9] = system: HepG2 cells; type: cell-based; conditions: up to 25 μM, 24 hours, XTT, relative to untreated, at least two experiments in quadruplicate
Description: HepG2 cells were seeded at 10.000 cells/well in 96-well plates and incubated for 24 hours. Subsequently, cells were treated either with water (untreated) or rAtPDF2.3 (0.01 μM–23.5 μM) for 24 hours after which cell viability was determined using the ‘Cell Proliferation Kit II (XTT) as described previously. ANOVA followed by Dunnett post hoc test was performed to analyze statistically significant differences between untreated and rAtPDF2.3-treated samples.
Supplementary Figure S4 Activity of rAtPDF2.3 on HepG2 cell viability. HepG2 cells were treated either with water (untreated) or rAtPDF2.3 (0.01 µM – 24.3 µM) for 24 hours, after which cell viability was determined by XTT staining. Results are expressed relative to the untreated samples. Mean ± standard error of at least two experiments in quadruplicate is shown. ANOVA followed by Dunnet post hoc test performed to analyze statistically significant differences between untreated and rAtPDF2.3-treated samples; * represents P = 0.03.
(1 picture or pasted object on this page, not shown here)

[10] = system: Saccharomyces cerevisiae BY4741 ∆arl1; test: Yeast growth inhibitory assay; type: cell-based; conditions: BY4741 ∆arl1, MM medium, 24 hours, OD490nm, mean ± SEM, n ≥ 3; read-out: IC50 (growth inhibition)

## rAtPDF2.3: Arabidopsis thaliana plant defensin AtPDF2.3 produced recombinantly in Pichia pastoris (RTCESKSHRFKGPCVSTHNCANVCHNEGFGGGKCRGFRRRCYCTRHC; ends and bridges not checked; cysteine pairing not given here)
[1]
  IC50: 1 to 5.8 µM
[2]
  IC50: 1.4 µM
[3]
  activity on Nav1.2: does not show activity
[4]
  activity on Nav1.4: does not show activity
[5]
  activity on hERG (Kv11.1) at single concentration: no effect
[6]
  IC50: 7.1 ± 0.1 µM
[7]
  IC50: 4 ± 0.4 µM
[8]; 3 μM
  activity on Kv1.6 at single concentration: can block
[8]; read-out: IC50 for Kv1.6, two-electrode voltage-clamp, X. laevis oocytes, concentration-response curve fitted with Hill equation, mean ± standard error
  IC50: 0.978 ± 0.113 µM
[9]
  cell viability in HepG2 cells: does not reduce cell viability
[10]
  IC50: 5.7 ± 0.2 µM
